Our source for the surface tension liquid-gas and viscosity values is the NIST ThermoML archive (doi:10.1016/j.fluid.2017.05.008).

A word on the surface tension liquid-gas: it is the work needed to enlarge the surface of a liquid by unit area. The viscosity is the internal friction of a fluid under shear.

This data set is described as follows: an = ratio of the nth substance listed. As to conditions: 298.15 K; for surface tension liquid-gas: Ring tensiometer; for viscosity: 101 kPa, Liquid, Concentric cylinders viscometry.

± gives the expanded uncertainty stated by the source.

For `OCCCCO` [1,4-butanediol] + C[N+](C)(C)CCO.[Cl-], under “a1 = 3”, the surface tension liquid-gas is given as 55.8 ± 0.9 mN/m and the viscosity is on record as 94 ± 6 mPa·s.

Consider `OCCCCCO` [1,5-pentanediol] + C[N+](C)(C)CCO.[Cl-], for which, under “a1 = 3.5”, the surface tension liquid-gas amounted to 47.5 ± 0.8 mN/m and the viscosity is listed as 110 ± 7 mPa·s.

Consider `C[N+](C)(C)CCO.[Cl-]` [choline chloride] + OCC(O)CO, for which, under “a2 = 2”, the surface tension liquid-gas worked out at 68.7 ± 1.1 mN/m and the viscosity came out at 296 ± 32 mPa·s.

As to `C[N+](C)(C)CCO.[Cl-]` [choline chloride] + OCCO, under “a2 = 2”, the surface tension liquid-gas worked out at 56.5 ± 0.6 mN/m and the viscosity amounted to 40 ± 2 mPa·s.

For the molecule `O.O.O=C(O)C(=O)O` [ethanedioic acid dihydrate] + C[N+](C)(C)CCO.[Cl-], where the note is “a1 = 1”, the surface tension liquid-gas was found to be 60.8 ± 1 mN/m and the viscosity was 767 ± 140 mPa·s.

`NC(N)=O` [urea] + C[N+](C)(C)CCO.[Cl-]: under “a1 = 2”, the surface tension liquid-gas is on record as 71.6 ± 1.2 mN/m and the viscosity came out at 849 ± 150 mPa·s.
